Measurements from ChEMBL document CHEMBL1159321, “Novel acylated triterpene glycosides from Muraltia heisteria” (J Nat Prod, 2002).
The source made the active and inactive calls. No cut-off for these calls is given here.

Test system: HT-29
Experiment: Cytotoxicity against human HT-29 cells at 12 to 50 ug/ml
Type: functional, cell-based

COc1cc(/C=C/C(=O)O[C@@H]2[C@H](O)[C@@H](O[C@@H]3O[C@@H](C)[C@H](O[C@@H]4OC[C@@H](O)[C@H](O[C@@H]5O[C@H](CO)[C@H](O[C@@H]6OC[C@H](O)[C@H](O)[C@H]6O)[C@H](O)[C@H]5O)[C@H]4O)[C@@H](O)[C@H]3O)[C@H](OC(=O)[C@]34CCC(C)(C)C[C@H]3C3=CC[C@@H]5[C@@]6(C)C[C@H](O)[C@H](O[C@@H]7O[C@H](CO)[C@@H](O)[C@H](O)[C@H]7O)[C@@](C)(C(=O)O)[C@@H]6CC[C@@]5(C)[C@]3(CO)CC4)O[C@@H]2C)cc(OC)c1OC
Activity: Active
